Read-outs that look alike come from different tables or passages of the source.
Assays:
BRD4 (BD1) = target: T1, BRD4 (BD1) (Homo sapiens, UniProt O60885); experiment: BRD4 AlphaLisa binding assay
T1 construct: His; made in house
Description: A. IC50 Measurements for Inhibitors Using BRD4 AlphaLisa Binding Assay.
Specifically, in a 384 well ProxiPlate BRD4 (BD1) (30 nM final) was combined with peptide (200 nM final) in 40 mM HEPES (pH 7.0), 40 mM NaCl, 1 mM DTT, 0.01% (w/v) BSA, and 0.008% (w/v) Brij-35 either in the presence of DMSO (final 1.2% DMSO) or compound dilution series in DMSO. After 20 minute incubation at room temperature Alpha streptavidin donor beads and AlphaLisa anti-Flag acceptor beads were added to a final concentration of 10 ug/mL each. After three hours equilibration plates were read on an Envision instrument and IC50s calculated using a four parameter non-linear curve fit.

[1] = system: MYC mRNA in MV4:11 (AML) cells; experiment: cMyc RNA quantification assay (QuantiGene) in MV4:11 cells; assay type: cell-based; details: Homo sapiens, 4 h, QuantiGene 2.0
Description: B. cMyc RNA Quantification Assay (QuantiGene® Assay):
MV4:11 (AML) cells were seeded in a 96-well plate and incubated in the presence of various concentrations of compounds for 4 h. Relative mRNA levels were quantitated by using QuantiGene 2.0 assay (Affymetrix) according to the manufacturer's recommendation. Signals were detected by using an Envision plate reader (Perkin-Elmer). Biological duplicates were averaged and normalized to vehicle (DMSO) control to calculate percent MYC mRNA levels.

[2] = system: IL-6 secretion in THP-1 cells; experiment: Cell-based IL-6 quantification assay (ELISA, Mesoscale) in LPS-treated THP-1 cells; details: Homo sapiens, LPS 4 μg/mL, 16 h, ELISA value/CellTiter-Glo ratio
Description: C. Cell-Based IL-6 Quantification Assay (ELISA, Mesoscale Assay):
100,000 THP-1 cells were seeded in RPMI1640-10% FBS in 96-well plates. LPS (E. Coli Invitrogen) in RPMI−10% FBS at a final concentration of 4 μg/mL was added to the wells and the cells are then incubated in the presence of various concentrations of compounds for 16 h. Plates are spun ([…], 5 min), an aliquot of 25 uL supernatant is transferred in to an ELISA plate (Mesoscale technology, MSD) and the detection of IL-6 is performed using manufacturer's instructions. The amount of cells in each well is assessed using CellTiter-Glo® (Promega). The ratio of ELISA value/CellTiter-Glo value is used to calculate the percent of inhibition of IL-6 secretion.

[3] = BRD4 (BD1) 30 nM, biotinylated H4-tetraacetyl peptide 200 nM, read-out: BRD4 AlphaLisa

Compound	IC50 (BRD4 (BD1); [3]) [nM]	IC50 [1] [nM]	IC50 [2] [nM]	IC50 (BRD4 (BD1)) [nM]
Cc1nnc2n1-c1ccc(Br)cc1N(c1ccc(Cl)cc1)C[C@@H]2C [Compound 37, (S)-4H-[1,2,4]triazolo[4,3-a][1,5]benzodiazepine, 5,6-dihydro-1,4-dimethyl-8-bromo-6-(4-chloro-phenyl)]	1000 to 10000	1000 to 10000	> 1000	
Cc1nnc2n1-c1ccc(Br)cc1N(c1ccc(S(C)(=O)=O)cc1)C[C@H]2C [Compound 77, (R)-8-bromo-1,4-dimethyl-6-(4-(methylsulfonyl)phenyl)-5,6-dihydro-4H-benzo[b][1,2,4]triazolo[4,3-d][1,4]diazepine]	1000 to 10000	1000 to 10000	> 1000	
Cc1nnc2n1-c1ccccc1N(c1ccc(Cl)cc1)CC2(C)C [Compound 3, 6-(4-chlorophenyl)-1,4,4-trimethyl-5,6-dihydro-4H-benzo[b][1,2,4]triazolo[4,3-d][1,4]diazepine]		1000 to 10000	100 to 1000	100 to 1000
Cc1nnc2n1-c1ccc(C(=O)NCCO)cc1N(c1ccc(Cl)cc1)C[C@H]2C [Compound 47, 4-R-4H-[1,2,4]triazolo[4,3-a][1,5]benzodiazepine,5,6-dihydro-1,4-dimethyl-8-(2-hydroxyethylcarbamoyl)-6-(4-chloro-phenyl)]	100 to 1000	100 to 1000	100 to 1000	
Cc1nnc2n1-c1ccc(-c3ncccn3)cc1N(c1ccc(Cl)cc1)CC2 [Compound 21, 6-(4-chlorophenyl)-1-methyl-8-(pyrimidin-2-yl)-5,6-dihydro-4H-benzo[b][1,2,4]triazolo[4,3-d][1,4]diazepine]	100 to 1000	1000 to 10000	100 to 1000	
Cc1nnc2n1-c1ccc(Br)cc1N(c1ccc(Cl)cc1)C[C@H]2C [Compound 38, (R)-4H-[1,2,4]triazolo[4,3-a][1,5]benzodiazepine,5,6-dihydro-1,4-dimethyl-8-bromo-6-(4-chloro-phenyl)]	100 to 1000	100 to 1000	100 to 1000	
Cc1nnc2n1-c1ccccc1N(c1ccc(Cl)cc1)C(C)(C)C2 [Compound 22, 6-(4-chlorophenyl)-1,5,5-trimethyl-5,6-dihydro-4H-benzo[b][1,2,4]triazolo[4,3-d][1,4]diazepine]	> 10000	100 to 1000	1000 to 10000	
Cc1nnc2n1-c1ccc(-c3ccc(N)nc3)cc1N(c1ccc(C#N)cc1)CC2 [Compound 16, 4H-[1,2,4]triazolo[4,3-a][1,5]benzodiazepine, 5,6-dihydro-1-methyl-8-(6-aminopyridin-3-yl)-6-(4-cyano-phenyl)]	100 to 1000	100 to 1000	100 to 1000	
Cc1nnc2n1-c1ccc(-c3cnn(C)c3)cc1N(c1ccc(C#N)cn1)C[C@@H]2C [Compound 58, (S)-4H-[1,2,4]triazolo[4,3-a][1,5]benzodiazepine, 5,6-dihydro-1,4-dimethyl-8-(1-methyl-1H-pyrazol-4-yl)-6-(5-cyanopyridin-2-yl)]	1000 to 10000	1000 to 10000	1000 to 10000	
Cc1nnc2n1-c1ccccc1N(c1ccc(Cl)cc1)CC2 [Compound 2, 6-(4-chlorophenyl)-1-methyl-5,6-dihydro-4H-benzo[b][1,2,4]triazolo[4,3-d][1,4]diazepine]		1000 to 10000	1000 to 10000	100 to 1000
Cc1noc(-c2ccc3c(c2)N(c2ccc(Cl)cc2)C[C@@H](C)c2nnc(C)n2-3)n1 [Compound 51, 4-R-4H-[1,2,4]triazolo[4,3-a][1,5]benzodiazepine,5,6-dihydro-1,4-dimethyl-8-(3-methyl-1,2,4-oxadiazol-5-yl)-6-(4-chloro-phenyl)]	100 to 1000	< 100	< 100	

Further lines, with some results ahead:

IC50 (BRD4 (BD1); [3]) [nM]	IC50 [1] [nM]	IC50 [2] [nM]	Compound	IC50 (BRD4 (BD1)) [nM]
100 to 1000	1000 to 10000	100 to 1000	Cc1ncnn1-c1ccc2c(c1)N(c1ccc(Cl)cc1)C[C@@H](C)c1nnc(C)n1-2 [Compound 65, (R)-6-(4-chlorophenyl)-1,4-dimethyl-8-(5-methyl-1H-1,2,4-triazol-1-yl)-5,6-dihydro-4H-benzo[b][1,2,4]triazolo[4,3-d][1,4]diazepine]	
100 to 1000	< 100	< 100	Cc1nc(-c2ccc3c(c2)N(c2ccc(Cl)cc2)C[C@@H](C)c2nnc(C)n2-3)no1 [Compound 50, 4-R-4H-[1,2,4]triazolo[4,3-a][1,5]benzodiazepine, 5,6-dihydro-1,4-dimethyl-8-(5-methyl-1,2,4-oxadiazol-3-yl)-6-(4-chloro-phenyl)]	
< 100	< 100	< 100	Cc1nnc2n1-c1ccc(-n3cncn3)cc1N(c1ccc(Cl)cc1)C[C@H]2C [Compound 54, (R)-6-(4-chlorophenyl)-1,4-dimethyl-8-(1H-1,2,4-triazol-1-yl)-5,6-dihydro-4H-benzo[b][1,2,4]triazolo[4,3-d][1,4]diazepine]	
< 100	100 to 1000	< 100	Cc1nnc2n1-c1ccc(-c3ccc(N)nc3)cc1N(c1ccc(Cl)cc1)CC2 [Compound 15, 5-(6-(4-chlorophenyl)-1-methyl-5,6-dihydro-4H-benzo[b][1,2,4]triazolo[4,3-d][1,4]diazepin-8-yl)pyridin-2-amine]	
100 to 1000	1000 to 10000	> 1000	Cc1nnc2n1-c1ccccc1N(c1ccc(Cl)cc1)C(C)C2 (stereo not drawn) [Compound 18, 6-(4-chlorophenyl)-1,5-dimethyl-5,6-dihydro-4H-benzo[b][1,2,4]triazolo[4,3-d][1,4]diazepine]	
< 100	< 100	< 100	Cc1nnc2n1-c1ccc(-c3ccc(N)nc3)cc1N(c1ccc(Cl)cc1)C[C@H]2C [Compound 26, (R)-4H-[1,2,4]triazolo[4,3-a][1,5]benzodiazepine, 5,6-dihydro-1,4-dimethyl-8-(6-aminopyridin-3-yl)-6-(4-chloro-phenyl)]	
< 100	< 100	< 100	Cc1nnc2n1-c1ccc(-c3cn[nH]c3)cc1N(c1ccc(C#N)cc1)C[C@H]2C [Compound 80, (R)-4-(1,4-dimethyl-8-(1H-pyrazol-4-yl)-4H-benzo[b][1,2,4]triazolo[4,3-d][1,4]diazepin-6(5H)-yl)benzonitrile]	
< 100	< 100	< 100	Cc1nnc2n1-c1ccc(-c3cnc(N)cn3)cc1N(c1ccc(Cl)cc1)C[C@H]2C [Compound 55, 4-R-4H-[1,2,4]triazolo[4,3-a][1,5]benzodiazepine,5,6-dihydro-1,4-dimethyl-8-(5-aminopyrazin-2-yl)-6-(4-chloro-phenyl)]	
< 100	< 100	< 100	Cc1ncn(-c2ccc3c(c2)N(c2ccc(Cl)cc2)C[C@@H](C)c2nnc(C)n2-3)n1 [Compound 66, (R)-6-(4-chlorophenyl)-1,4-dimethyl-8-(3-methyl-1H-1,2,4-triazol-1-yl)-5,6-dihydro-4H-benzo[b][1,2,4]triazolo[4,3-d][1,4]diazepine]	
< 100	< 100	< 100	Cc1nnc2n1-c1ccc(-c3cnn(C)n3)cc1N(c1ccc(Cl)cc1)C[C@H]2C [Compound 48, 4H-[1,2,4]triazolo[4,3-a][1,5]benzodiazepine, 5,6-dihydro-(4R)-1,4-dimethyl-8-(2-methyl-2H-1,2,3-triazole-4-yl)-6-(4-chloro-phenyl)]	
< 100	100 to 1000	100 to 1000	Cc1nnc2n1-c1ccc(-c3cnn(CC(N)=O)c3)cc1N(c1ccc(Cl)cc1)C[C@H]2C [Compound 46, 4H-[1,2,4]triazolo[4,3-a][1,5]benzodiazepine,5,6-dihydro-(4R)-1,4-dimethyl-8-(1-(2-amino-2-oxoethyl)-1H-pyrazol-4-yl)-6-(4-chloro-phenyl)]	
< 100	< 100	< 100	Cc1nnc2n1-c1ccc(-c3cnn(C)c3)cc1N(c1ccc(Cl)cc1)C[C@H]2C [Compound 43, (R)-(4H-[1,2,4]triazolo[4,3-a][1,5]benzodiazepine,5,6-dihydro-1,4-dimethyl-8-(1-methyl-1H-pyrazol-4-yl)-6-(4-chloro-phenyl))]	
< 100	< 100	< 100	Cc1c(-c2ccc3c(c2)N(c2ccc(Cl)cc2)C[C@@H](C)c2nnc(C)n2-3)cnn1C [Compound 59, (R)-6-(4-chlorophenyl)-8-(1,5-dimethyl-1H-pyrazol-4-yl)-1,4-dimethyl-5,6-dihydro-4H-benzo[b][1,2,4]triazolo[4,3-d][1,4]diazepine]	

Source: patent US9422292B2, “Bromodomain inhibitors and uses thereof” (Constellation Pharmaceuticals, Inc., priority 2011, dated 2016)
